What is called Km is the concentration of substrate that gives half-maximal velocity.

These results are taken from ChEMBL document CHEMBL2074036, “Renal transport of organic compounds mediated by mouse organic anion transporter 3 (mOat3): further substrate specificity of mOat3” (Drug Metab Dispos, 2004).

Series [1] concerns the target T1, Oat3 (organic anion transporter 3) (Mus musculus, UniProt O88909).
T1 sequence (O88909 whole entry): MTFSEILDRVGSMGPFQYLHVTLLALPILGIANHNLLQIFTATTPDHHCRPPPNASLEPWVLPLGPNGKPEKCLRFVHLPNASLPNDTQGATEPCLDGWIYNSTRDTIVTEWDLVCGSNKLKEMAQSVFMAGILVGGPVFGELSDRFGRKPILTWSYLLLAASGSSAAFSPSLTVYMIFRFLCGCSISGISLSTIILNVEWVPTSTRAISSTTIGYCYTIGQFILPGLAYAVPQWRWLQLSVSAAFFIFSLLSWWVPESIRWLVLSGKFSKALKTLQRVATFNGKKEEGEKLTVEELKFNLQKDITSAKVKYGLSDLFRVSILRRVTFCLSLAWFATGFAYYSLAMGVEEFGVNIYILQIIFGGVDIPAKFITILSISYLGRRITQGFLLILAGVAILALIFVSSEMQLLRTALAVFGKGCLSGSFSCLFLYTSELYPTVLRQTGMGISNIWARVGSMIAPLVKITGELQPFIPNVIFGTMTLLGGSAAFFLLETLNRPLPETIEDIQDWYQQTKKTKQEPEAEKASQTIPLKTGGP
As to the kind of experiment: TP_TRANSPORTER: inhibition of PHA uptake (PHA: 1000uM) in mOat3-expressing oocytes. The class given is functional, cell-based, Oocyte. Details: scale not given: the % may be the effect or the level left. The following applies: probe PHA (1000 uM).

Series [2] deals with T2, Organic anion transporter 3 (Mus musculus, UniProt O88909).
T2 sequence (O88909 whole entry): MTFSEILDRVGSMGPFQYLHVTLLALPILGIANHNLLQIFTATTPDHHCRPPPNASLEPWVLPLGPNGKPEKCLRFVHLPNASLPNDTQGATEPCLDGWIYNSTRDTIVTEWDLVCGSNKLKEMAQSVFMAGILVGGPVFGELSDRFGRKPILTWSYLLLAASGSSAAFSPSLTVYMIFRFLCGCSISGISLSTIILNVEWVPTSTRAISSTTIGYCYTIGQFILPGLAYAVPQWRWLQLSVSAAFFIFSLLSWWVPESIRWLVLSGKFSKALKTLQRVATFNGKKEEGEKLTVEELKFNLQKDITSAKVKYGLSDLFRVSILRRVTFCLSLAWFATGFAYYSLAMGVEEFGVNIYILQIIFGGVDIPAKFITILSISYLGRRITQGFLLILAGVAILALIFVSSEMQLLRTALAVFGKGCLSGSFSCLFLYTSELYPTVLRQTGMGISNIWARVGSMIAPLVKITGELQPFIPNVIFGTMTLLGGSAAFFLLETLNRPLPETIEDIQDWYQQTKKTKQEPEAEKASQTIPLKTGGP
As to the kind of experiment: (§1) TP_TRANSPORTER: uptake in mOat3-expressing oocytes. The class given is functional, cell-based. The following applies: oocyte.

The target of series [3] is T1, Oat3 (organic anion transporter 3). As to the kind of experiment: TP_TRANSPORTER: inhibition of PHA uptake (PHA: 1000uM) by P-aminohippuric acid at a concentration of 10uM in mOat3-expressing oocytes. The format is functional, cell-based, Oocyte. Set-up: scale not given: the % may be the effect or the level left. The following applies: probe PHA (1000 uM), read-out: Activity.

Substrate in series [4]: C[N+](C)(C)C[C@H](O)CC(=O)[O-]
The description is as §1. The class given is functional, cell-based, Oocyte.

Substrate in series [5]: O=c1[nH]cc(F)c(=O)[nH]1
The description is as §1. The class given is functional, cell-based, Oocyte.

Substrate in series [6]: Sc1ncnc2nc[nH]c12
The series is described as §1. The class given is functional, cell-based, Oocyte.

For the molecule `CCOC(=O)[C@H](CCc1ccccc1)N[C@@H](C)C(=O)N1CCC[C@H]1C(=O)O`, the Activity in series [1] came out at 45%. In the case of `Oc1ncnc2[nH]ncc12` [ALLOPURINOL], in series [2], the Activity entry was “substrate []”. With `Nc1ccc(C(=O)NCC(=O)O)cc1` [AMINOHIPPURIC ACID], the Activity entry in series [2] is “substrate []”. The activity at 10 µM in series [3] came out at 20%. Turning to `CN/C(=N/CCSCc1nc[nH]c1C)NC#N` [CIMETIDINE], the Activity in series [1] stood at 65%. Take `CCCCC[C@H](O)/C=C/[C@H]1[C@H](O)CC(=O)[C@@H]1C/C=C\CCCC(=O)O` [DINOPROSTONE]: the Activity entry in series [2] was “substrate []”. As for `CCCCC[C@H](O)/C=C/[C@@H]1[C@@H](C/C=C\CCCC(=O)O)[C@@H](O)C[C@H]1O` [DINOPROST], the Activity entry in series [2] was “substrate []”. The same measure, in the same setting: as for `C[C@]12CC[C@@H]3c4ccc(OS(=O)(=O)O)cc4CC[C@H]3[C@@H]1CCC2=O` [ESTRONE SULFURIC ACID], the entry is “substrate []”. In series [1], `CC(C)Cc1ccc(C(C)C(=O)O)cc1` (stereo not drawn) [IBUPROFEN] returned an Activity of 80%. In the case of `CN1C(C(=O)Nc2ccccn2)=C(O)c2sccc2S1(=O)=O` [TENOXICAM], the Activity in series [1] is 55%.

B1: Organic anion transporter 3 (Mus musculus) (protein)
chain: MTFSEILDRVGSMGPFQYLHVTLLALPILGIANHNLLQIFTATTPDHHCRPPPNASLEPWVLPLGPNGKPEKCLRFVHLPNASLPNDTQGATEPCLDGWIYNSTRDTIVTEWDLVCGSNKLKEMAQSVFMAGILVGGPVFGELSDRFGRKPILTWSYLLLAASGSSAAFSPSLTVYMIFRFLCGCSISGISLSTIILNVEWVPTSTRAISSTTIGYCYTIGQFILPGLAYAVPQWRWLQLSVSAAFFIFSLLSWWVPESIRWLVLSGKFSKALKTLQRVATFNGKKEEGEKLTVEELKFNLQKDITSAKVKYGLSDLFRVSILRRVTFCLSLAWFATGFAYYSLAMGVEEFGVNIYILQIIFGGVDIPAKFITILSISYLGRRITQGFLLILAGVAILALIFVSSEMQLLRTALAVFGKGCLSGSFSCLFLYTSELYPTVLRQTGMGISNIWARVGSMIAPLVKITGELQPFIPNVIFGTMTLLGGSAAFFLLETLNRPLPETIEDIQDWYQQTKKTKQEPEAEKASQTIPLKTGGP
B1: the Km amounted to 0.0619 µM in series [4], 0.0539 µM in series [5] and 4.01 µM in series [6].
